For one data set, the system named is Cricetinae gen. sp. The data set is described as follows: Percent inhibition of elastase-induced lung damage by 10 mg/kg dosed orally, 30 minutes prior to the instillation of 50 ug of elastase. The format is functional, Cricetulus griseus.
Data set [1] can be described thus: Bioavailability in rat. Conditions: in vivo. It counts as ADME, organism-based.
In a further data set the target is Acetylcholinesterase (Homo sapiens, UniProt P22303). The data set is described as follows: Binding affinity for human erythrocyte Acetylcholinesterase; No inhibition at 188 uM (highest concentration tested).
Another data set addresses Procathepsin L (Bos taurus, UniProt P25975). The data set is described as follows: Binding affinity for bovine spleen cathepsin L; No inhibition at 188 uM (highest concentration tested).
The target in data set [2] is T1, Serine protease 1 (Homo sapiens, UniProt P07477). Nature of the data set: Binding affinity for human pancreatic trypsin; […].
A further data set concerns the target T2, Monoamine oxidase (Homo sapiens, UniProt P21397+P27338).
T2 sequence (P21397 whole entry): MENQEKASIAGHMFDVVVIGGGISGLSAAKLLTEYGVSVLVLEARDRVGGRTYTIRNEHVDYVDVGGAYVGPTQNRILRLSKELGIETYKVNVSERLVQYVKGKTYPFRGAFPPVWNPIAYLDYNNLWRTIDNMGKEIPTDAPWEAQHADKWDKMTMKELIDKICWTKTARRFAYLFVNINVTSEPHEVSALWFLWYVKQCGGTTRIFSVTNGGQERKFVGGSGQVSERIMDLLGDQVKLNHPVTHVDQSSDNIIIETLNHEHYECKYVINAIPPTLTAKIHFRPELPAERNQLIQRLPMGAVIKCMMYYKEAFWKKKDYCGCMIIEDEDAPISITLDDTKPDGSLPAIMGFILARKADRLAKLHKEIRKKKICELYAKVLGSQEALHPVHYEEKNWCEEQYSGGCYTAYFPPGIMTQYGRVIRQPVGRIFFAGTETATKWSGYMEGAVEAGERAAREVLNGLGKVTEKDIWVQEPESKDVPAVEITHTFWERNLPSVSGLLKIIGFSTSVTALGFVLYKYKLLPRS
T2 sequence (P27338 whole entry): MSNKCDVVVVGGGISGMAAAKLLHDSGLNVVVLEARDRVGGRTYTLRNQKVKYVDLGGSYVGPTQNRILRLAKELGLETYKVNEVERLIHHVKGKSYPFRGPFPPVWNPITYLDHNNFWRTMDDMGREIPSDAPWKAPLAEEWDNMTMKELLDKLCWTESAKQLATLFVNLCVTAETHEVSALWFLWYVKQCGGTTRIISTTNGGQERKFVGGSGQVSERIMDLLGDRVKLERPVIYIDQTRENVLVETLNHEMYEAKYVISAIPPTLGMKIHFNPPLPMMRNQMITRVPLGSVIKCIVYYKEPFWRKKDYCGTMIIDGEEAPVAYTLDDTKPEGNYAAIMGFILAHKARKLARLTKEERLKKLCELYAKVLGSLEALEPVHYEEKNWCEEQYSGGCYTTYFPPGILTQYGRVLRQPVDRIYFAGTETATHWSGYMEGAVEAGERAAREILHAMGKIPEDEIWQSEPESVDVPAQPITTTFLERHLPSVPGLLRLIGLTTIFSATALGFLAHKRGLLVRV
Nature of the data set: Binding affinity for human plasma monoamine oxidase; No inhibition at 188 uM (highest concentration tested). The format is cell-free.

Data set [3] is described as follows: +Ratio of intravenous to oral integrated area under the concentration vs time curve, for compound in dog plasma. It counts as ADME, organism-based, Canis lupus familiaris.
The nature of data set [4]: Intravenous integrated area under the concentration vs time curve, for compound in hamster plasma. The format is ADME, organism-based. Conditions: cricetinae.
Data set [5] concerns the target T3, Mast cell carboxypeptidase A (Homo sapiens, UniProt P15088).
T3 sequence (P15088 whole entry): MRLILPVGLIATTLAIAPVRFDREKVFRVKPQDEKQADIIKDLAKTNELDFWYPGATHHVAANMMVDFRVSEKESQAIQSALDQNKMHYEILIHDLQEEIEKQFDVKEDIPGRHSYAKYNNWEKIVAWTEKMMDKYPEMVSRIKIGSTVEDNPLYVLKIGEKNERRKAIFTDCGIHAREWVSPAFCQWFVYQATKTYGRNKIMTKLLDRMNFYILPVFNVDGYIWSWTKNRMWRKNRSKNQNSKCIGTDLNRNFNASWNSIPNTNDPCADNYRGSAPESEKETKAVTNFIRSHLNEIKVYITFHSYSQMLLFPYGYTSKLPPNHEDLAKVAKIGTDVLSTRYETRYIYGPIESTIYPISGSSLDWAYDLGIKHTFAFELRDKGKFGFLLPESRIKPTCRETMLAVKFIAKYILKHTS
Nature of the data set: Binding affinity for carboxypeptidase A; No inhibition at 188 uM (highest concentration tested).

The target in another data set is T4, Cathepsin G (Homo sapiens, UniProt P08311).
T4 sequence (P08311 whole entry): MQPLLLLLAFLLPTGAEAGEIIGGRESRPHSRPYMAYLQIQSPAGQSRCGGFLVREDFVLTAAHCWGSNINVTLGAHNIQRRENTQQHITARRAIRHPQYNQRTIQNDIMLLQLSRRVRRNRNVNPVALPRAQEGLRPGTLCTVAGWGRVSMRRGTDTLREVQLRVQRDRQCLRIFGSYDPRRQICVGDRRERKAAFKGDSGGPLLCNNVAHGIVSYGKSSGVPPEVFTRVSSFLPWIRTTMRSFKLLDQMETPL
The data set is described as follows: Binding affinity for human leukocyte cathepsin G; No inhibition at 188 uM (highest concentration tested).

Data set [6] can be described thus: Ratio of intravenous to oral integrated area under the concentration vs time curve, for compound in dog plasma. The format is ADME, organism-based, Canis lupus familiaris.
Data set [7] addresses T1, Serine protease 1. The data set is described as follows: Binding affinity for human pancreatic trypsin.
The next data set has as its target T5, Neutrophil elastase (Homo sapiens, UniProt P08246).
T5 sequence (P08246 whole entry): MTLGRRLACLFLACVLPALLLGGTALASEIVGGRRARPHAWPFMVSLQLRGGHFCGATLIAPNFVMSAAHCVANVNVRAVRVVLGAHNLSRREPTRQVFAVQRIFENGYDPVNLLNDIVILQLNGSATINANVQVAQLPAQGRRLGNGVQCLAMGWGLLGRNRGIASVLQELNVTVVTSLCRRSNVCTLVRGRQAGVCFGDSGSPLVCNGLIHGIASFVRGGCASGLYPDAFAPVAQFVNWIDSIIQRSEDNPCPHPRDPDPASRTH
Nature of the data set: Binding affinity for human leukocyte elastase.

Where a SMILES comes first, the peptide text is derived from it. The star is where a group is joined. CF3 = FC(F)(F)*; Moc = COC(=O)*

For orientation: Inhibition means the percentage by which the read-out fell short of the control. Low values mean a weak effect, high ones a strong effect. As a reminder, the bioavailability is the share of a dose that reaches the circulation, judged against a reference dose that is usually intravenous. Broadly, the Ki is a dissociation constant, usually derived from enzyme kinetics or from competition with a known ligand. A low value points to tighter binding. Usually AUC stands for concentration integrated over time. Read a high AUC as more exposure. In general, inhibition in vivo refers to the drop in the measured response relative to a control, in per cent.

Chain of Procathepsin L (P25975 whole entry): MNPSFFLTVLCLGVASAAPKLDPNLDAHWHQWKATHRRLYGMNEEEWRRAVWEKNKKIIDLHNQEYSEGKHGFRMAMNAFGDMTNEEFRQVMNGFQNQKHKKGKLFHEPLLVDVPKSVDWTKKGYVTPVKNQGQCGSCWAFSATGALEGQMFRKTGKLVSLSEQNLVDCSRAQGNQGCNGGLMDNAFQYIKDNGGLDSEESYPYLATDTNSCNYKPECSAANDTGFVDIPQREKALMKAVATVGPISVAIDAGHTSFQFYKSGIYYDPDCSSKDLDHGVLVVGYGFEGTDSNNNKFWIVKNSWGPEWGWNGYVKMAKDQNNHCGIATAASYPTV
T1 sequence (P07477 whole entry): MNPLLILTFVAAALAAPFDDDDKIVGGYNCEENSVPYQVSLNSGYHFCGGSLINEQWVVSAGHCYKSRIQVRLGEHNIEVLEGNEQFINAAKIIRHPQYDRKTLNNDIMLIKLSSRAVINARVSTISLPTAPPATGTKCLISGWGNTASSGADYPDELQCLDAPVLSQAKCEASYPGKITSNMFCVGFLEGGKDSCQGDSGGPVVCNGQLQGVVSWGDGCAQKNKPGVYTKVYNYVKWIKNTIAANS
Chain of Acetylcholinesterase (P22303 whole entry): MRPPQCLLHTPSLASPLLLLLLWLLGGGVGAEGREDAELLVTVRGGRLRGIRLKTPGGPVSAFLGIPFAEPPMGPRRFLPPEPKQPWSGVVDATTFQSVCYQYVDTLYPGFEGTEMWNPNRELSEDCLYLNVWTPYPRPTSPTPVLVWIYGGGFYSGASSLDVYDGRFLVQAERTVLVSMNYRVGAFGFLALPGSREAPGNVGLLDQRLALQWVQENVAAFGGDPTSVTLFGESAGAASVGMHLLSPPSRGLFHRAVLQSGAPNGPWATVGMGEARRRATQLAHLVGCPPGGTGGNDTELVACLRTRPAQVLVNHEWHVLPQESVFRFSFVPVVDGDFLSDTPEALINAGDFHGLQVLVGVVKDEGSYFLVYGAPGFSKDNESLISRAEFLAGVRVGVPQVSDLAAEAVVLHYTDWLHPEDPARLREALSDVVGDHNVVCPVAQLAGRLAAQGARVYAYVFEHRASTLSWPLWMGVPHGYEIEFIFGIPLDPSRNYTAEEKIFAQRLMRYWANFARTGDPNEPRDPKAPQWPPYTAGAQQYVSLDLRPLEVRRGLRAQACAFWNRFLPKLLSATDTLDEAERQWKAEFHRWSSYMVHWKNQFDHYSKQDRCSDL

As for `COc1ccc(C(=O)N[C@H](C(=O)N2CCC[C@H]2C(=O)N[C@H](C(=O)C(F)(F)F)C(C)C)C(C)C)cc1` (stereo in doubt; 1k), the Inhibition in the data set on Cricetinae gen. sp. (10 mg/kg) was found to be 84%. Also, the bioavailability in [1] was 82%; in data set [3], 39%. Moreover, the Ki entry on Acetylcholinesterase, at Procathepsin L, on Serine protease 1 [2] and on Monoamine oxidase was “No inhibition” throughout. For the same molecule, the AUC in [4] was determined as 1360 ng·h/mL.

For the molecule `COC(=O)N[C@H](C(=O)N1CCC[C@H]1C(=O)N[C@H](C(=O)C(F)(F)F)C(C)C)C(C)C` (Moc-Val-Pro-Val-CF3), the Ki result in data set [5] was “No inhibition”; at Cathepsin G, “No inhibition”; on Serine protease 1 [7], 66.6 µM; at Procathepsin L it was “No inhibition”; at Monoamine oxidase, “No inhibition”; on Neutrophil elastase, 0.013 µM. Besides, the bioavailability was 70% in data set [6] and 84% in data set [1]. In addition, the inhibition in vivo at 10 mg/kg in the data set on Cricetinae gen. sp. (Cricetinae gen. sp., po) is 92%. In data set [4], this molecule had an AUC of 2890 ng·h/mL.

Source of the values: ChEMBL document CHEMBL1130170, “Orally active trifluoromethyl ketone inhibitors of human leukocyte elastase” (J Med Chem, 1997).
